Among the data in PubChem BioAssay (NCI) are TGI and GI50 values, retold here.

Some test systems named below: MDA-N; DMS 114 small cell lung; DMS 273 small cell lung; KM20L2 colon; LXFL 529 NSCLC; M19-MEL melanoma; SNB-78 CNS; XF 498 CNS; RXF-631 renal.
What all share (assay): NCI-60 cell line screen, 48 h

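Method: 48-hour compound exposure of cells in 96-well plates, five concentrations, linear interpolation of endpoints. The concentration for 50% growth inhibition is given as GI50. TGI denotes the concentration required for complete inhibition of growth.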 Where only a bound is given, the exact number is not on record here.

On to `COc1cc2c3c(c1OC)C1(C=CC(=O)C=C1)CC3NCC2` (centres undefined), for which, in the test on MDA-N, the TGI is more than 100 µM.
As for `O=C(CSc1nc(-c2ccccc2)c(-c2ccccc2)[nH]1)NNC(=S)Nc1ccccc1`, the TGI with DMS 114 small cell lung, with DMS 273 small cell lung, with KM20L2 colon, with LXFL 529 NSCLC, in the test on M19-MEL melanoma and with SNB-78 CNS was more than 100 µM in each case. In the test on XF 498 CNS, this compound gave a TGI of more than 100 µM.
As to `CCOC(=O)Cc1csc(N=Nc2c(O)[nH]c3ccccc23)n1`, the TGI in the test on MDA-N was more than 100 µM.
Consider `CCC[CH2][Sn]1([CH2]CCC)[O]C(=O)c2ccc(N)cc2[O]1`, for which the GI50 with DMS 273 small cell lung was 1.04 µM; in the test with KM20L2 colon it was 1.57 µM; in the test on LXFL 529 NSCLC it was 0.0365 µM; with MDA-N, 0.668 µM; with SNB-78 CNS, 0.0801 µM. The TGI in the test with DMS 273 small cell lung turned out to be 2.56 µM; in the test with KM20L2 colon it was 3.17 µM; in the test with LXFL 529 NSCLC it was 0.248 µM; in the test with M19-MEL melanoma, 1.66 µM; in the test on MDA-N, 1.97 µM; with SNB-78 CNS, 1.18 µM.
With `Clc1ccc(-c2c(C3=NCCN3)nnn2-c2ccccc2)cc1`, the TGI with DMS 114 small cell lung, in the test on DMS 273 small cell lung, in the test on KM20L2 colon, in the test with LXFL 529 NSCLC, with M19-MEL melanoma and with SNB-78 CNS was more than 100 µM in each case. Moreover, the TGI in the test on XF 498 CNS is more than 100 µM.
Take `C/C(=N\NC(=S)N1CCN(c2ccccn2)CC1)c1nccs1`: the TGI with DMS 114 small cell lung is 0.649 µM; in the test with DMS 273 small cell lung, 11.4 µM; in the test with LXFL 529 NSCLC it was 22 µM; in the test on M19-MEL melanoma it was 2.34 µM; with MDA-N, 16.6 µM; in the test on RXF-631 renal, 24.2 µM. Besides, the TGI in the test with SNB-78 CNS worked out at 71.4 µM; with XF 498 CNS, 32.1 µM.
Turning to `CCCCCCCCCCCCCC(=O)NCC(OCC)OCC`, the TGI in the test with DMS 114 small cell lung, with DMS 273 small cell lung, in the test on KM20L2 colon, in the test with LXFL 529 NSCLC, with M19-MEL melanoma and in the test on SNB-78 CNS was more than 100 µM in each case. The compound further returned a TGI in the test with XF 498 CNS of more than 100 µM.
In the case of `CC1(C)C(=O)C=CC2(C)C1CC(O)C1(C)C2CCC2(C)C(c3ccoc3)OC(=O)C3OC321` (centres undefined), the TGI in the test with MDA-N is 41.8 µM.
For `COC(=O)[C@H]1N[C@@H](C(=O)OC)C23CCC[C@H]2CC[C@]1(C(OC)OC)C3`, the TGI in the test with DMS 114 small cell lung, with DMS 273 small cell lung, with KM20L2 colon, in the test on LXFL 529 NSCLC, with M19-MEL melanoma and in the test on SNB-78 CNS was more than 100 µM in each case. Further, in the test with XF 498 CNS, the TGI is more than 100 µM.
As to `CC(C(=O)O)c1ccc(-c2ccccc2)c(F)c1` (centres undefined), the TGI in the test with MDA-N was more than 100 µM.
With `COc1cc(C2c3cc4c(cc3[C@@H](OCCN(C)C)C3COC(=O)[C@H]23)OCO4)cc(OC)c1O` (some centres undefined), the TGI in the test with DMS 273 small cell lung was 0.632 µM; with KM20L2 colon, 5.14 µM; in the test on LXFL 529 NSCLC it was 31.7 µM; in the test with M19-MEL melanoma, 3.17 µM; in the test with RXF-631 renal, 1.78 µM; in the test with SNB-78 CNS it was more than 100 µM. Further, the TGI with XF 498 CNS came out at 1.74 µM.
Consider `O=C(O)Cc1ccccc1CCc1ccccc1Cl`, for which the TGI in the test on DMS 273 small cell lung, with KM20L2 colon, in the test with LXFL 529 NSCLC, in the test on M19-MEL melanoma, with SNB-78 CNS and in the test with XF 498 CNS was more than 100 µM each time.
With `Cc1c(Cl)cccc1NC(=O)/C(Cl)=C(\Cl)C(=O)O`, the TGI in the test on DMS 114 small cell lung was 36.5 µM; in the test with DMS 273 small cell lung, 38.4 µM; in the test on KM20L2 colon, 40.9 µM; with LXFL 529 NSCLC it was 46.5 µM; in the test on M19-MEL melanoma it was 30.7 µM; in the test with RXF-631 renal, 56.7 µM. Further, the TGI with SNB-78 CNS came out at 44.7 µM.
Compound `C[C@]12CC[C@H]3[C@@H](CC[C@]4(O)C[C@@H](O)CC[C@]34CO)[C@@]1(O)CC[C@@H]2C1=CC(=O)OC1` showed a TGI in the test on MDA-N of 14.4 µM.
As for `Clc1ccc2ns[s+]c2c1`, the TGI with DMS 114 small cell lung, in the test with DMS 273 small cell lung, in the test with KM20L2 colon, in the test with LXFL 529 NSCLC, in the test with M19-MEL melanoma and in the test with MDA-N was more than 100 µM each time. In addition, the TGI in the test with SNB-78 CNS and with XF 498 CNS was more than 100 µM each time.
With `COc1ccc(N2C(=O)C3c4[nH]c5ccccc5c4C4CCCCCCC4C3C2=O)cc1` (centres undefined), the TGI in the test on DMS 114 small cell lung was 28 µM; in the test with DMS 273 small cell lung it was 18.6 µM; in the test on KM20L2 colon, more than 100 µM; in the test with LXFL 529 NSCLC, 17.1 µM; in the test with M19-MEL melanoma it was more than 80.3 µM; with SNB-78 CNS, more than 100 µM. The compound further registered a TGI with XF 498 CNS of 25.7 µM.
With `CN1C(=O)C2C=CC1C1CCC2N(C)C1=O` (centres undefined), the TGI in the test with DMS 114 small cell lung, in the test with DMS 273 small cell lung, in the test with LXFL 529 NSCLC, with M19-MEL melanoma, with RXF-631 renal and with SNB-78 CNS was more than 100 µM throughout.
Turning to `CCOC(=O)C1=C(Nc2ccc(Cl)c(Cl)c2)OC/C1=N\NC(=O)Cc1ccccc1`, the TGI with DMS 114 small cell lung, in the test on DMS 273 small cell lung, in the test on KM20L2 colon, in the test with LXFL 529 NSCLC, in the test with M19-MEL melanoma and with SNB-78 CNS was more than 100 µM throughout. Also, in the test on XF 498 CNS, the TGI is more than 100 µM.
For `COc1cc2c(c(OC)c1OC)-c1ccc(O)c(=O)cc1[C@@H](NC(C)=O)CC2`, in the test on MDA-N, the TGI amounted to 34.4 µM.
For `COc1cc(C2c3cc4c(cc3[C@@H](N(C)C)[C@H]3COC(=O)C23)OCO4)cc(OC)c1O` (some centres undefined), the TGI is more than 100 µM in the test with DMS 273 small cell lung; 54.1 µM in the test with KM20L2 colon; more than 100 µM in the test on LXFL 529 NSCLC; more than 100 µM in the test on RXF-631 renal; more than 100 µM in the test with XF 498 CNS.
In the test with MDA-N, `COC(=O)[C@]1(C)CCC[C@@]2(C)[C@@H]3C[C@@H]4[C@H]5C[C@@]3(CC[C@@H]21)C[C@@]45C` yielded a TGI of 31.8 µM.
`C/C=C(/C)c1cnc(CC(C)C)c(=O)[nH]1` had a TGI in the test on MDA-N of more than 100 µM.
For `NC(=S)NNC(=S)NC(=O)c1ccco1`, the TGI with MDA-N is more than 10 µM.
